According to patent publication US10613104B2, “Assay to determine anticoagulants in blood or blood plasma” (ZAFENA AB, priority 2014, dated 2020):

Test system: prothrombin time (PT) of normal plasma NKP
Assay: Three wet-chemistry Owren PT methods (Simple Simon PT; 20, 10, 5 μL sample in 200 μL reagent) on normal plasma NKP with added anticoagulant
Assay type: biochemical
Method: Experimental work was performed with the commercially available ambient room temperature coagulation instrument, Simple Simon P T Zafena A B, Linköping, Sweden, with functions described in EP 1 636 595 B2. One instrument or reader was used for each PT-method. Alternatively, the same instrument could be used for all PT-methods.
The three instruments were used together standing next to one another on a laboratory bench in thermal equilibrium with the ambient room temperature of the laboratory.
The ambient room temperature in the laboratory where the work was done varied between 21° C. and 26° C.
The PT-reagent was the one delivered together with lot N223M of the Simple Simon PT product, a reagent of Owren-type that thus contains effective amounts of thromboplastin, fibrinogen and FV (the thromboplastin of rabbit brain origin and the fibrinogen and the FV of bovine blood plasma origin). Other Owren type reagents could also be used.
The reagent was in portions of 200 μL to which sample, citrated blood or citrated blood plasma, was added and mixed. The addition was by an end-to-end plastic capillary mounted at one end of a tubular body with a displacement mechanism in the other end, this to allow convenient mixing of sample and reagent. Such Mixxocaps with 10 μL capillaries are supplied with the Simple Simon PT product. To perform the experiments described, some Mixxocaps were fitted with 20 μL capillaries, or 5 μL capillaries instead of the 10 μL capillaries with which they were supplied by the manufacturer.
The ratios between the volume of blood or blood plasma to the volume of liquid reagent used in the experiments were 1:11, 1:21 and 1:41. Other ratios lying within the range of 1:5 and 1:100 or within the range of 1:2 and 1:200 could be used.
Anticoagulated normal plasma was the NKP product GHI-163 lot 10188, MediRox AB, Nyköping, Sweden.
It was further relevant that all three PT-methods were calibrated, according to the invention, to show INR 1.000 for unadulterated NKP, and INR 1.357 for the NKP 1:2. All primary INR values, the results that appeared on the instrument screens (one instrument or reader was used for each PT-method), were therefore transformed to the corrected/calibrated INRc by the formula A*INRexp(B) where a and b were selected to given NKP and NKP 1:2 their desired values, 1.000 and 1.357, respectively. The INR-value of the NKP 1:2 was calculated by the formula of Lindahl et al for the INR of corresponding to PT-activity of 50% (half of the 100% that equates to INR 1.000). Above the INR calibrated columns (INRc) there is an upper number and a lower number, these are the above mentioned A and B, respectively.
As deemed relevant the upper number is selected to make NKP 1:2 to show INRc 1.357.
Clinical levels of interest range from 50 to 1000 μg/L in blood plasma.
In the selected calibration INR 1.000 and INR 1.357 were assigned to NKP and NKP 1:2, respectively, which was the same relevant calibration as selected in Examples 1 and 3 above.

[1] = apixaban 50 μg/L in NKP plasma, from PT (s)
[2] = apixaban 50 μg/L in NKP plasma, from instrument INR
[3] = apixaban 100 μg/L in NKP plasma
[4] = apixaban 100 μg/L in NKP plasma, from PT (s)
[5] = apixaban 100 μg/L in NKP plasma, from instrument INR
[6] = apixaban 200 μg/L in NKP plasma
[7] = apixaban 200 μg/L in NKP plasma, from PT (s)
[8] = apixaban 200 μg/L in NKP plasma, from instrument INR
[9] = apixaban 300 μg/L in NKP plasma
[10] = apixaban 300 μg/L in NKP plasma, from PT (s)
[11] = apixaban 300 μg/L in NKP plasma, from instrument INR
[12] = apixaban 400 μg/L in NKP plasma
[13] = apixaban 400 μg/L in NKP plasma, from PT (s)
[14] = apixaban 400 μg/L in NKP plasma, from instrument INR
[15] = apixaban 500 μg/L in NKP plasma
[16] = apixaban 500 μg/L in NKP plasma, from PT (s)
[17] = apixaban 500 μg/L in NKP plasma, from instrument INR
[18] = apixaban 600 μg/L in NKP plasma
[19] = apixaban 600 μg/L in NKP plasma, from PT (s)
[20] = apixaban 600 μg/L in NKP plasma, from instrument INR
[21] = apixaban 800 μg/L in NKP plasma
[22] = apixaban 800 μg/L in NKP plasma, from PT (s)
[23] = apixaban 800 μg/L in NKP plasma, from instrument INR
[24] = apixaban 1000 μg/L in NKP plasma
[25] = apixaban 1000 μg/L in NKP plasma, from PT (s)
[26] = apixaban 1000 μg/L in NKP plasma, from instrument INR

Compound: COc1ccc(-n2nc(C(N)=O)c3c2C(=O)N(c2ccc(N4CCCCC4=O)cc2)CC3)cc1 [apixaban]
- INR 5 μL sample (apixaban 50 μg/L in NKP plasma): 1.12
- INR 10 μL sample (apixaban 50 μg/L in NKP plasma): 1.18
- INR 20 μL sample (apixaban 50 μg/L in NKP plasma): 1.28
- PT (s) 5 μL sample (apixaban 50 μg/L in NKP plasma): 47.7 s
- PT (s) 10 μL sample (apixaban 50 μg/L in NKP plasma): 39.1 s
- PT (s) 20 μL sample (apixaban 50 μg/L in NKP plasma): 35.5 s
- INRc 20 μL sample [1]: 1.23
- ΔINRc 10 μL − 5 μL [1]: 0.04
- ΔINRc 20 μL − 5 μL [1]: 0.19
- INRc 20 μL sample [2]: 1.30
- ΔINR 10 μL − 5 μL [2]: 0.07
- ΔINR 20 μL − 5 μL [2]: 0.24
- INR 5 μL sample [3]: 1.15
- INR 10 μL sample [3]: 1.27
- INR 20 μL sample [3]: 1.55
- PT (s) 5 μL sample [3]: 49.1 s
- PT (s) 10 μL sample [3]: 41.5 s
- PT (s) 20 μL sample [3]: 39.3 s
- INRc 20 μL sample [4]: 1.61
- ΔINRc 10 μL − 5 μL [4]: 0.12
- ΔINRc 20 μL − 5 μL [4]: 0.53
- INRc 10 μL sample [5]: 1.24
- INRc 20 μL sample [5]: 1.67
- ΔINR 10 μL − 5 μL [5]: 0.15
- ΔINR 20 μL − 5 μL [5]: 0.58
- INR 5 μL sample [6]: 1.29
- INR 10 μL sample [6]: 1.53
- INR 20 μL sample [6]: 2.12
- PT (s) 5 μL sample [6]: 54.4 s
- PT (s) 10 μL sample [6]: 47.9 s
- PT (s) 20 μL sample [6]: 46.7 s
- INRc 5 μL sample [7]: 1.20
- INRc 20 μL sample [7]: 2.53
- ΔINRc 10 μL − 5 μL [7]: 0.31
- INRc 5 μL sample [8]: 1.22
- INRc 10 μL sample [8]: 1.55
- INRc 20 μL sample [8]: 2.51
- ΔINR 10 μL − 5 μL [8]: 0.34
- ΔINR 20 μL − 5 μL [8]: 1.30
- INR 5 μL sample [9]: 1.44
- INR 10 μL sample [9]: 1.82
- INR 20 μL sample [9]: 2.82
- PT (s) 5 μL sample [9]: 60.6 s
- PT (s) 10 μL sample [9]: 54.6 s
- PT (s) 20 μL sample [9]: 54.8 s
- INRc 5 μL sample [10]: 1.35
- INRc 10 μL sample [10]: 1.88
- INRc 20 μL sample [10]: 3.85
- ΔINRc 10 μL − 5 μL [10]: 0.53
- ΔINRc 20 μL − 5 μL [10]: 2.50
- INRc 5 μL sample [11]: 1.35
- INRc 10 μL sample [11]: 1.91
- INRc 20 μL sample [11]: 3.66
- ΔINR 10 μL − 5 μL [11]: 0.56
- ΔINR 20 μL − 5 μL [11]: 2.30
- INR 5 μL sample [12]: 1.58
- INR 20 μL sample [12]: 3.68
- PT (s) 5 μL sample [12]: 66.3 s
- PT (s) 10 μL sample [12]: 62.3 s
- PT (s) 20 μL sample [12]: 63.5 s
- INRc 5 μL sample [13]: 1.48
- INRc 20 μL sample [13]: 5.66
- ΔINRc 10 μL − 5 μL [13]: 0.86
- ΔINRc 20 μL − 5 μL [13]: 4.18
- INRc 5 μL sample [14]: 1.48
- INRc 20 μL sample [14]: 5.18
- ΔINR 10 μL − 5 μL [14]: 0.87
- ΔINR 20 μL − 5 μL [14]: 3.70
- INR 5 μL sample [15]: 1.73
- INR 10 μL sample [15]: 2.37
- INR 20 μL sample [15]: 4.47
- PT (s) 5 μL sample [15]: 72.0 s
- PT (s) 10 μL sample [15]: 67.0 s
- PT (s) 20 μL sample [15]: 70.8 s
- INRc 5 μL sample [16]: 1.62
- INRc 10 μL sample [16]: 2.64
- INRc 20 μL sample [16]: 7.54
- ΔINRc 10 μL − 5 μL [16]: 1.02
- ΔINRc 20 μL − 5 μL [16]: 5.92
- INRc 5 μL sample [17]: 1.62
- INRc 10 μL sample [17]: 2.63
- INRc 20 μL sample [17]: 6.69
- ΔINR 10 μL − 5 μL [17]: 1.02
- ΔINR 20 μL − 5 μL [17]: 5.07
- INR 5 μL sample [18]: 1.90
- INR 10 μL sample [18]: 2.70
- INR 20 μL sample [18]: 5.56
- PT (s) 5 μL sample [18]: 78.8 s
- PT (s) 10 μL sample [18]: 73.9 s
- PT (s) 20 μL sample [18]: 79.9 s
- INRc 5 μL sample [19]: 1.78
- INRc 10 μL sample [19]: 3.10
- INRc 20 μL sample [19]: 10.35
- ΔINRc 10 μL − 5 μL [19]: 1.32
- ΔINRc 20 μL − 5 μL [19]: 8.57
- INRc 5 μL sample [20]: 1.77
- INRc 10 μL sample [20]: 3.08
- INRc 20 μL sample [20]: 8.91
- ΔINR 10 μL − 5 μL [20]: 1.31
- ΔINR 20 μL − 5 μL [20]: 7.14
- INR 5 μL sample [21]: 2.22
- INR 10 μL sample [21]: 3.35
- INR 20 μL sample [21]: 7.81
- PT (s) 5 μL sample [21]: 91.7 s
- PT (s) 10 μL sample [21]: 87.2 s
- PT (s) 20 μL sample [21]: 96.9 s
- INRc 5 μL sample [22]: 2.09
- INRc 20 μL sample [22]: 17.18
- ΔINRc 10 μL − 5 μL [22]: 1.99
- INRc 5 μL sample [23]: 2.06
- INRc 20 μL sample [23]: 13.91
- ΔINR 10 μL − 5 μL [23]: 1.94
- ΔINR 20 μL − 5 μL [23]: 11.85
- INR 5 μL sample [24]: 2.67
- INR 20 μL sample [24]: 10.70
- PT (s) 5 μL sample [24]: 111.2 s
- PT (s) 10 μL sample [24]: 109.3 s
- PT (s) 20 μL sample [24]: 117.4 s
- INRc 20 μL sample [25]: 28.43
- INRo [25]: 0.75
- ΔINRc 10 μL − 5 μL [25]: 3.37
- ΔINRc 20 μL − 5 μL [25]: 25.85
- INRc 20 μL sample [26]: 21.03
- INRo [26]: 0.78
- ΔINR 10 μL − 5 μL [26]: 3.12
- ΔINR 20 μL − 5 μL [26]: 18.56
- content at which the INRc-difference (20 μL minus 5 μL) reaches 0.5 (normal plasma NKP, linear part of the graph (FIG. 8, FIG. 2)): about 80 μg/L
